In US20230119539A1, “TRACELESS LINKERS AND PROTEIN-CONJUGATES THEREOF” (Regeneron Pharmaceuticals, Inc., priority 2019, published 2023):
Read-outs that look alike come from different tables or passages of the source.

Columns and labels:
[1] = Solubility of quenched linker-payloads; settings: Table 3c, linker-payloads quenched with taurine-PEG4-azide or CD-N3
[2] = pH stability of quenched linker-payloads in buffers (LCMS); type: physicochemical; settings: RT
Protocol: To a solution of compound (payloads or quenched-linker-payloads) in DMSO (0.2-1.0 mg/mL) was added corresponding PBS buffer (V(buffer)/V(DMSO)=5) to give test samples (pH 3, 4, 5, 6, 7.4, and 8.5, or other special pH). The test samples were incubated at RT for at least 3 days and monitored by LCMS (i.e., at 1 hr, 2 hr, 4 hr, 8 hr, and 1 day, 2 day, 3 day, 4 day, 5 day, 6 day, 7 day, 8 day, 9 day, and 21 day time points). Initial concentrations of the samples were 0.2 mg/mL (DMSO/buffer, v/v=1/5). […] The payloads and quenched linker-payloads were mostly stable at pH >5.0, 6.0, 7.4 and 8.5 after 3 days. In more acidic conditions, such as pH 1.0, the payloads or linker-payloads were easily cleaved to release D*-OH.

[3] = Solubility of linker-payloads and quenched linker-payloads; type: physicochemical; settings: water; quenched linker-payloads, Table 6a; read-out: Solubility
Text: The quenched linker-payloads were water soluble and used for the pH stability test.

[4] = molecular target: T1, human macrophage scavenger receptor 1 (MSR1) (human, UniProt P21757 1-451); experiment: cell-based or functional assay
T1 sequence (looked up): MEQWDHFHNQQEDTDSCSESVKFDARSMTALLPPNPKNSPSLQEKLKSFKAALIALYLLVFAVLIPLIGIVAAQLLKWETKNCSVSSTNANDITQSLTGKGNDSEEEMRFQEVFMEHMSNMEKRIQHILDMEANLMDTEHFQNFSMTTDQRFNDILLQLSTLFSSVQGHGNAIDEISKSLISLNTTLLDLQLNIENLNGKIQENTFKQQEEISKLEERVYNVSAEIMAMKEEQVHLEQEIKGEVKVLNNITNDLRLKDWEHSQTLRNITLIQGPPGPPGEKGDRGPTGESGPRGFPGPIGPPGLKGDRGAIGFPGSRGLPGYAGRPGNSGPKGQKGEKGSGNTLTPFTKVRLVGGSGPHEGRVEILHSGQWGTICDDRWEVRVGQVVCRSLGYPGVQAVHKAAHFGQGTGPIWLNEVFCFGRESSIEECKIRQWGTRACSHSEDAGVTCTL

GR = molecular target: T2, GR (Homo sapiens, UniProt P04150); experiment: GR luciferase reporter assay in HEK293/GRLuc cells; type: cell-based
T2 construct: host or cells: HEK293 (HEK293/GRLuc; HEK293/GRLuc/MSR1 additionally transduced with human MSR1)
T2 sequence (P04150 524-758 limits assumed): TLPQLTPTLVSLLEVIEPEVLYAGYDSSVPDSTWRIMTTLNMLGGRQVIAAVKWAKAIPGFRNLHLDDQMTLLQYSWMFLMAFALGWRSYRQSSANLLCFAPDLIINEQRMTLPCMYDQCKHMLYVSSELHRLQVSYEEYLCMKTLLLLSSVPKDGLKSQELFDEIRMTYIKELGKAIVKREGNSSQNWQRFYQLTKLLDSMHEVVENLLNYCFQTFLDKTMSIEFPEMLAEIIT
Protocol: Activity of anti-MSR1 ncADCs were tested using an MSR1 ADC steroid responsive luciferase reporter assay. To generate the assay cell line, HEK293 cells were co-transfected with the pBind-GR (Promega, Cat #E158A) and pGL4.35 [Luc2P/9xGAL4UAS/Hygro] (Promega, Cat #E137A) vectors. The pBind-GR vector expresses a fusion protein consisting of the GR ligand binding and the yeast Gal4DNA-binding domain, which binds to the Gal4 upstream activation sequence (UAS) in the luciferase expression vector, that can induce luciferase expression following GR agonist binding. The cells were selected for at least 2 weeks in G418+hygromycin and the resulting cell line is referred to as HEK293/GRLuc. HEK293/GRLuc cells were then transduced with a human MSR1 lentiviral expression vector and 48 hours later cells were sorted for MSR1 positive cells. The resulting cell line is referred to as HEK293/GRLuc/MSR1.
Three-fold serial dilutions of ncADCs in assay buffer were added to the cells for 48 hours. The last well in the plate served as blank control containing only the assay media and was plotted as a continuation of the 3-fold serial dilution. Luciferase activity was determined using the One-Glo™ reagent (Promega, Cat #E6130). Relative light units (RLUs) were measured on an Envision luminometer (PerkinElmer) and EC50 values were determined using a four-parameter logistic equation over a 10-point dose response curve (GraphPad Prism). The signal to noise (S/N) was determined by taking the ratio of the highest RLU on the dose response curve to the RLU in the untreated wells.
To test the activity of GR agonist payloads disclosed herein, a cell-based GR responsive luciferase reporter assay was developed as described above.
Three-fold serial dilutions of free payloads were prepared in 100% DMSO, transferred to fresh assay media, and added to the cells for 48 hours. […] The last well in the plate served as blank control containing only the assay media and 0.2% DMSO (untreated well) and was plotted as a continuation of the 3-fold serial dilution. Luciferase activity was determined using the One-Glo™ reagent (Promega, Cat #E6130). Relative light units (RLUs) were measured on an Envision luminometer (PerkinElmer) and EC50 values were determined using a four-parameter logistic equation over a 10-point dose response curve (GraphPad Prism). The signal to noise (S/N) was determined by taking the ratio of the highest RLU on the dose response curve to the RLU in the untreated wells.

[5] = molecular target: T1, human macrophage scavenger receptor 1 …; experiment: cell-based or functional assay; remark: listed apart in the source
[6] = Table 8, ncADCs, highest RLU / RLU of untreated wells

CCCC1O[C@@H]2C[C@H]3[C@@H]4C[C@H](F)C5=CC(=O)C=C[C@]5(C)[C@@]4(F)[C@@H](O)C[C@]3(C)[C@]2(C(=O)COCNC(=O)CNC(=O)CNC(=O)OCc2ccc(NC(=O)[C@H](CCCNC(N)=O)NC(=O)[C@@H](NC(=O)CCOCCOCCOCCOCCNC(=O)CCC(=O)N3Cc4ccccc4-c4c(nnn4CCOCCOCCOCCOCCC(=O)NCCS(=O)(=O)O)-c4ccccc43)C(C)C)cc2)O1 (some centres unmarked) [Q1L1-PIII-4]
Solubility [1]: >1000 µg/mL

CC(C)[C@H](NC(=O)CCOCCOCCOCCOCCNC(=O)CCC(=O)N1Cc2ccccc2-c2c(nnn2CCOCCOCCOCCOCCC(=O)NCCS(=O)(=O)O)-c2ccccc21)C(=O)N[C@@H](CCCNC(N)=O)C(=O)Nc1ccc(COC(=O)NCC(=O)NCOCC(=O)[C@@]2(O)[C@H](C)C[C@H]3[C@@H]4CCC5=CC(=O)C=C[C@]5(C)[C@@]4(F)[C@@H](O)C[C@@]32C)cc1 [Q1L1-PI]
percentage of the remaining compound ([2]; DMSO, 1 Day): 100% | percentage of the remaining compound ([2]; DMSO, 2 Day): 100% | percentage of the remaining compound ([2]; DMSO, 3 Day): 100% | percentage of the remaining compound ([2]; DMSO, 4 Day): 100% | percentage of the remaining compound ([2]; DMSO, 7 Day): 100% | percentage of the remaining compound ([2]; DMSO, 1 hr): 100% | percentage of the remaining compound ([2]; DMSO, 4 hr): 100% | percentage of the remaining compound ([2]; pH 3.0, 1 Day): 100% | percentage of the remaining compound ([2]; pH 3.0, 2 Day): 100% | percentage of the remaining compound ([2]; pH 3.0, 3 Day): 96% | percentage of the remaining compound ([2]; pH 3.0, 4 Day): 95% | percentage of the remaining compound ([2]; pH 3.0, 7 Day): 91% | percentage of the remaining compound ([2]; pH 3.0, 1 hr): 100% | percentage of the remaining compound ([2]; pH 3.0, 4 hr): 100% | percentage of the remaining compound ([2]; pH 4.0, 1 Day): 100% | percentage of the remaining compound ([2]; pH 4.0, 2 Day): 100% | percentage of the remaining compound ([2]; pH 4.0, 3 Day): 100% | percentage of the remaining compound ([2]; pH 4.0, 4 Day): 100% | percentage of the remaining compound ([2]; pH 4.0, 7 Day): 100% | percentage of the remaining compound ([2]; pH 4.0, 1 hr): 100% | percentage of the remaining compound ([2]; pH 4.0, 4 hr): 100% | percentage of the remaining compound ([2]; pH 5.0, 1 Day): 100% | percentage of the remaining compound ([2]; pH 5.0, 2 Day): 100% | percentage of the remaining compound ([2]; pH 5.0, 3 Day): 100% | percentage of the remaining compound ([2]; pH 5.0, 4 Day): 100% | percentage of the remaining compound ([2]; pH 5.0, 7 Day): 100% | percentage of the remaining compound ([2]; pH 5.0, 1 hr): 100% | percentage of the remaining compound ([2]; pH 5.0, 4 hr): 100% | percentage of the remaining compound ([2]; pH 7.4, 1 Day): 100% | percentage of the remaining compound ([2]; pH 7.4, 2 Day): 100% | percentage of the remaining compound ([2]; pH 7.4, 3 Day): 100% | percentage of the remaining compound ([2]; pH 7.4, 4 Day): 100% | percentage of the remaining compound ([2]; pH 7.4, 7 Day): 100% | percentage of the remaining compound ([2]; pH 7.4, 1 hr): 100% | percentage of the remaining compound ([2]; pH 7.4, 4 hr): 100% | Solubility [3]: > 1000 µg/mL

B1: H1H21234N-N297Q-L1-PII-1 (antibody, V domains shown)
VH: QVQLQESGPGLVKPSETLSLTCTVTGGSISRNYWSWIRQPPGKGLEWIGYIYYSGSIDYNPSLKSRVTISVDTSKNQFSLKLSSMTAADTAVYYCARDRWNWKYGMDVWGQGTTVIVSS
VL: EIVLTQSPGTLSLSPGERATLSCRASQTVRNNYLAWYHQKPGQAPRLLIYGASSRATGIPDRFSGSGSGTDFTLTISRLEPEDFTVYYCHQYGNSPWTFGQGTKMEIKR
modifications: heavy-chain constant region (not part of this entry): N297Q (EU); linker-payload L1-PII-1 (DIBAC-suc-PEG4-vcPAB-PII-1, payload budesonide) clicked onto azido-PEG3-amine on glutamines; DAR 4
EC50, GR luciferase reporter activity in HEK293/GRLuc/MSR1 cells [4]: 0.609 nM | S/N (highest RLU / RLU in untreated wells), HEK293/GRLuc/MSR1 cells [4]: 128 | EC50 (GR; Table 8, ncADCs, 48 hours): > 100 nM | S/N (GR; [6]): 5.4 | EC50 (GR; Table 11, ADCs): > 100 nM | S/N (GR; Table 11, ADCs): 4.5 | EC50, GR luciferase reporter activity in HEK293/GRLuc/MSR1 cells [5]: 0.84 nM | S/N, HEK293/GRLuc/MSR1 cells [5]: 222

B2: H1H21234N-N297Q-L13-PII-1 (antibody, V domains shown)
VH: B1 VH
VL: B1 VL
modifications: heavy-chain constant region (not part of this entry): N297Q (EU); linker-payload L13-PII-1 (COT-GGGG-NHCH2-Bud) conjugated as in Example 5; four DAR ADC
EC50 (GR; Table 11, ADCs): > 100 nM | S/N (GR; Table 11, ADCs): 3.1 | EC50, GR luciferase reporter activity in HEK293/GRLuc/MSR1 cells [5]: 2.33 nM | S/N, HEK293/GRLuc/MSR1 cells [5]: 226

B3: H1H21234N-N297Q-L6-PII-9 (antibody, V domains shown)
VH: B1 VH
VL: B1 VL
modifications: heavy-chain constant region (not part of this entry): N297Q (EU); linker-payload L6-PII-9 (DIBAC-suc-PEG4-PII-9, payload budesonide) conjugated as in Example 5; four DAR ADC
EC50 (GR; Table 11, ADCs): > 100 nM | S/N (GR; Table 11, ADCs): 15.8 | EC50, GR luciferase reporter activity in HEK293/GRLuc/MSR1 cells [5]: 3.96 nM | S/N, HEK293/GRLuc/MSR1 cells [5]: 150

B4: H1H21234N-N297Q-L14-PII-1 (antibody, V domains shown)
VH: B1 VH
VL: B1 VL
modifications: heavy-chain constant region (not part of this entry): N297Q (EU); linker-payload L14-PII-1 (DIBAC-GGFG-NHCH2-Bud) conjugated as in Example 5; four DAR ADC
EC50 (GR; Table 11, ADCs): > 100 nM | S/N (GR; Table 11, ADCs): 16.8 | EC50, GR luciferase reporter activity in HEK293/GRLuc/MSR1 cells [5]: 0.636 nM | S/N, HEK293/GRLuc/MSR1 cells [5]: 120

B5: H1H21234N-N297Q-L2-PIII-1 (antibody, V domains shown)
VH: B1 VH
VL: B1 VL
modifications: heavy-chain constant region (not part of this entry): N297Q (EU); linker-payload L2-PIII-1 (DIBAC-suc-PEG4-Glu-vcPAB-PIII-1) clicked onto azido-PEG3-amine on glutamines; DAR 4
EC50, GR luciferase reporter activity in HEK293/GRLuc/MSR1 cells [4]: 0.184 nM | S/N (highest RLU / RLU in untreated wells), HEK293/GRLuc/MSR1 cells [4]: 96.4 | EC50 (GR; Table 8, ncADCs, 48 hours): 52.7 nM | S/N (GR; [6]): 6.0

B6: H1H21234N-N297Q-L8-PII-1 (antibody, V domains shown)
VH: B1 VH
VL: B1 VL
modifications: heavy-chain constant region (not part of this entry): N297Q (EU); linker-payload L8-PII-1 (COT-PEG4-EvcPAB-G-NHCH2-Bud) conjugated as in Example 5; four DAR ADC
EC50 (GR; Table 11, ADCs): > 100 nM | S/N (GR; Table 11, ADCs): 1.4 | EC50, GR luciferase reporter activity in HEK293/GRLuc/MSR1 cells [5]: 0.899 nM | S/N, HEK293/GRLuc/MSR1 cells [5]: 280
